The text below walks through data of patent publication US20220033396A1, “FURTHER HETEROAROMATIC COMPOUNDS HAVING ACTIVITY AGAINST RSV” (priority 2018, published 2022).

The test system of one series is rgRSV224 virus. As to the kind of experiment: microbe, parasite or virus in culture. The class given is cell-based. Conditions: human respiratory syncytial virus, 72 h; rgRSV224 virus (MOI=1), HeLa cells, GFP expression three days post-virus exposure; averaged data of several repeat experiments; read-out: RSV HELA EC50.
The next series in a line: in vitro. Conditions: human.

One may read the EC50 as the midpoint of the concentration-response curve.

Bounds are passed on as bounds.

For `C[C@@H]1c2ccsc2CCN1C(=O)c1cc(C2CC2)c2nc(-c3ccc(N4CC[C@H](C(N)=O)C4)nc3F)cn2c1` (single isomer, unassigned) [Compound 23, (3S)-1-(5-{8-cyclopropyl-6-[(4*R)-4-methyl-4,5,6,7-tetrahydrothieno[3,2-c]pyridine-5-carbonyl]imidazo[1,2-a]pyridin-2-yl}-6-fluoropyridin-2-yl)pyrrolidine-3-carboxamide], in the series on rgRSV224 virus, the EC50 is 0.18 µM. Also, the CC50 at 3 days in the series “in vitro” came to 34.7 µM.
For `CC1c2ccsc2CCN1C(=O)c1cc(C2CC2)c2nc(-c3ccc(NC(=O)N4CC[C@@H](O)C4)cc3F)cn2n1` (single isomer, unassigned) [Compound 38, (R)-N-(4-(8-cyclopropyl-6-((R*)-4-methyl-4,5,6,7-tetrahydrothieno[3,2-c]pyridine-5-carbonyl)imidazo[1,2-b]pyridazin-2-yl)-3-fluorophenyl)-3-hydroxypyrrolidine-1-carboxamide], in that order: 0.012 µM and 35.9 µM.
As to `CCc1cc(C(=O)N2CCc3sc(F)cc3C2C)nn2cc(-c3ccc(NC(=O)N4CC[C@@H](O)C4)cc3F)nc12` (single isomer, unassigned) [Compound 40, (R)-N-(4-(8-ethyl-6-((R*)-2-fluoro-4-methyl-4,5,6,7-tetrahydrothieno[3,2-c]pyridine-5-carbonyl)imidazo[1,2-b]pyridazin-2-yl)-3-fluorophenyl)-3-hydroxypyrrolidine-1-carboxamide], in the series on rgRSV224 virus, the EC50 came out at 0.017 µM. In the series “in vitro”, this compound yielded a CC50 at 3 days of 29.9 µM.
For `CCc1cc(C(=O)N2CCc3ccc(F)cc3C2C)nn2cc(-c3ccc(NC(=O)N4CC[C@@H](O)C4)cc3F)nc12` (single isomer, unassigned) [Compound 41, (R)-N-(4-(8-ethyl-6-((R*)-7-fluoro-1-methyl-1,2,3,4-tetrahydroisoquinoline-2-carbonyl)-imidazo[1,2-b]pyridazin-2-yl)-3-fluorophenyl)-3-hydroxypyrrolidine-1-carboxamide], in that order: 0.026 µM and 26.8 µM.
Regarding `C[C@@H]1c2ccccc2CCN1C(=O)c1cc(C2CC2)c2nc(-c3ccc(C(=O)O)cc3F)cn2c1` [Compound 1, 4-{8-Cyclopropyl-6-[(1R)-1-methyl-1,2,3,4-tetrahydroisoquinoline-2-carbonyl]imidazo[1,2-a]pyridin-2-yl}-3-fluorobenzoic Acid], the concentration for a half-maximal effect (EC50) in the series with rgRSV224 virus worked out at 0.51 µM. This compound also displayed a CC50 at 3 days in the series “in vitro” of 60.4 µM.
For `C[C@@H]1c2ccccc2CCN1C(=O)c1cc(C2CC2)c2nc(-c3ccc(C(N)=O)cc3F)cn2c1` [Compound 2, 4-{8-Cyclopropyl-6-[(1R)-1-methyl-1,2,3,4-tetrahydroisoquinoline-2-carbonyl]imidazo[1,2-a]pyridin-2-yl}-3-fluorobenzamide], in that order: 0.072 µM and 54 µM.
As for `C[C@@H]1c2ccccc2CCN1C(=O)c1cc(C2CC2)c2nc(-c3ccc(N)cc3F)cn2c1` [Compound 3, 4-{8-Cyclopropyl-6-[(1R)-1-methyl-1,2,3,4-tetrahydroisoquinoline-2-carbonyl]imidazo[1,2-a]pyridin-2-yl}-3-fluoroaniline], in the series with rgRSV224 virus, the EC50 worked out at 0.054 µM. Moreover, the CC50 at 3 days in “in vitro” was 68 µM.
On to `C[C@@H]1c2ccccc2CCN1C(=O)c1cc(C2CC2)c2nc(-c3ccc(NC(=O)N4CC[C@H](O)C4)cc3F)cn2c1` [Compound 4, (3S)-N-(4-{8-Cyclopropyl-6-[(1R)-1-methyl-1,2,3,4-tetrahydroisoquinoline-2-carbonyl]imidazo[1,2-a]pyridin-2-yl}-3-fluorophenyl)-3-hydroxypyrrolidine-1-carboxamide], for which the half-maximal effective concentration (EC50) with rgRSV224 virus amounted to 0.035 µM. Further, the CC50 at 3 days in the series “in vitro” worked out at 51.4 µM.
For `C[C@@H]1c2ccccc2CCN1C(=O)c1cc(C2CC2)c2nc(-c3ccc(NC(=O)N4CC[C@@H](O)C4)cc3F)cn2c1` [Compound 5, (3R)-N-(4-{8-Cyclopropyl-6-[(1R)-1-methyl-1,2,3,4-tetrahydroisoquinoline-2-carbonyl]imidazo[1,2-a]pyridin-2-yl}-3-fluorophenyl)-3-hydroxypyrrolidine-1-carboxamide], in that order: 0.048 µM and 40.1 µM.
In the case of `C[C@@H]1c2ccccc2CCN1C(=O)c1cc(C2CC2)c2nc(-c3ccc(N4CC[C@H](C(=O)O)C4)cc3F)cn2c1` [Compound 9, (3S)-1-(4-{8-Cyclopropyl-6-[(1R)-1-methyl-1,2,3,4-tetrahydroisoquinoline-2-carbonyl]imidazo[1,2-a]pyridin-2-yl}-3-fluorophenyl)pyrrolidine-3-carboxylic Acid], in the series with rgRSV224 virus, the concentration for a half-maximal effect (EC50) was found to be 0.045 µM. The compound further displayed a CC50 at 3 days in “in vitro” of 68.4 µM.
For `C[C@@H]1c2ccccc2CCN1C(=O)c1cc(C2CC2)c2nc(-c3ccc(N4CC[C@H](C(N)=O)C4)cc3F)cn2c1` [Compound 10, (3S)-1-(4-{8-Cyclopropyl-6-[(1R)-1-methyl-1,2,3,4-tetrahydroisoquinoline-2-carbonyl]imidazo[1,2-a]pyridin-2-yl}-3-fluorophenyl)pyrrolidine-3-carboxamide], in that order: 0.049 µM and 70.4 µM.
As to `CNC(=O)[C@H]1CCN(c2ccc(-c3cn4cc(C(=O)N5CCc6ccccc6[C@H]5C)cc(C5CC5)c4n3)c(F)c2)C1` [Compound 11, (3S)-1-(4-{8-Cyclopropyl-6-[(1R)-1-methyl-1,2,3,4-tetrahydroisoquinoline-2-carbonyl]imidazo[1,2-a]pyridin-2-yl}-3-fluorophenyl)-N-methylpyrrolidine-3-carboxamide], the concentration for a half-maximal effect (EC50) with rgRSV224 virus was found to be 0.062 µM. Besides, in the series “in vitro”, the CC50 at 3 days was over 100 µM.
For `C[C@@H]1c2ccccc2CCN1C(=O)c1cc(C2CC2)c2nc(-c3ccc(N4CC[C@H](O)C4)cc3F)cn2c1` [Compound 12, (3S)-1-(4-{8-Cyclopropyl-6-[(1R)-1-methyl-1,2,3,4-tetrahydroisoquinoline-2-carbonyl]imidazo[1,2-a]pyridin-2-yl}-3-fluorophenyl)pyrrolidin-3-ol], in that order: 0.169 µM and 67.7 µM.
On to `C[C@@H]1CCCCCN1C(=O)c1cc(C2CC2)c2nc(-c3ccc(N4CC[C@H](C(N)=O)C4)cc3F)cn2c1` [Compound 15, (3S)-1-(4-{8-Cyclopropyl-6-[(2R)-2-methylazepane-1-carbonyl]imidazo[1,2-a]pyridin-2-yl}-3-fluorophenyl)pyrrolidine-3-carboxamide], for which, in the series with rgRSV224 virus, the EC50 came to 1.07 µM. In “in vitro”, this compound showed a CC50 at 3 days of 13.2 µM.
For `C[C@@H]1c2ccccc2CCN1C(=O)c1cc(-c2ccccc2)c2nc(-c3ccc(N4CC[C@H](C(N)=O)C4)cc3F)cn2c1` [Compound 16, (3S)-1-(3-Fluoro-4-{6-[(1R)-1-methyl-1,2,3,4-tetrahydroisoquinoline-2-carbonyl]-8-phenylimidazo[1,2-a]pyridin-2-yl}phenyl)pyrrolidine-3-carboxamide], in that order: 0.186 µM and 93.6 µM.
For `C[C@@H]1c2ccccc2CCN1C(=O)c1cc(-c2cccnc2)c2nc(-c3ccc(N4CC[C@H](C(N)=O)C4)cc3F)cn2c1` [Compound 17, (3S)-1-(3-Fluoro-4-{6-[(1R)-1-methyl-1,2,3,4-tetrahydroisoquinoline-2-carbonyl]-8-(pyridin-3-yl)imidazo[1,2-a]pyridin-2-yl}phenyl)pyrrolidine-3-carboxamide], the EC50 in the series with rgRSV224 virus amounted to 0.163 µM. This compound also came in with a CC50 at 3 days in the series “in vitro” of 44.3 µM.
Consider `C[C@@H]1c2ccccc2CCN1C(=O)c1cc(N(C)C)c2nc(-c3ccc(N4CC[C@H](C(N)=O)C4)cc3F)cn2c1` [Compound 19, (3S)-1-{4-[8-(Dimethylamino)-6-[(1R)-1-methyl-1,2,3,4-tetrahydroisoquinoline-2-carbonyl]imidazo[1,2-a]pyridin-2-yl]-3-fluorophenyl}pyrrolidine-3-carboxylamide], for which the concentration for a half-maximal effect (EC50) in the series with rgRSV224 virus came out at 0.141 µM. Also, in “in vitro”, the CC50 at 3 days was found to be 43.9 µM.
With `C[C@@H]1c2ccccc2CCN1C(=O)c1cc(N2CCCC2)c2nc(-c3ccc(N4CC[C@H](C(N)=O)C4)cc3F)cn2c1` [Compound 20, (3S)-1-(3-Fluoro-4-{6-[(1R)-1-methyl-1,2,3,4-tetrahydroisoquinoline-2-carbonyl]-8-(pyrrolidin-1-yl)imidazo[1,2-a]pyridin-2-yl}phenyl)pyrrolidine-3-carboxamide], in the series on rgRSV224 virus, the EC50 stood at 0.149 µM. In “in vitro”, this compound gave a CC50 at 3 days of over 100 µM.
Take `Cc1c(-c2ccc(N3CC[C@H](C(N)=O)C3)cc2F)nc2c(C3CC3)cc(C(=O)N3CCc4ccccc4[C@H]3C)cn12` [Compound 21, (3S)-1-(4-{8-Cyclopropyl-3-methyl-6-[(1R)-1-methyl-1,2,3,4-tetrahydroisoquinoline-2-carbonyl]imidazo[1,2-a]pyridin-2-yl}-3-fluorophenyl)pyrrolidine-3-carboxamide]: the concentration giving a half-maximal response (EC50) in the series with rgRSV224 virus turned out to be 0.638 µM. Also, in “in vitro”, the CC50 at 3 days is 35 µM.
As to `C[C@@H]1c2ccccc2CCN1C(=O)c1cc(C2CC2)c2nc(-c3ccc(N4CC[C@H](C(N)=O)C4)nc3F)cn2c1` [Compound 22, (3S)-1-(5-{8-Cyclopropyl-6-[(1R)-1-methyl-1,2,3,4-tetrahydroisoquinoline-2-carbonyl]imidazo[1,2-a]pyridin-2-yl}-6-fluoropyridin-2-yl)pyrrolidine-3-carboxamide], the EC50 in the series with rgRSV224 virus was determined as 0.171 µM. In addition, the CC50 at 3 days in “in vitro” came out at 37.4 µM.
As to `C[C@@H]1c2ccccc2CCN1C(=O)c1cc(C2CC2)c2nc(-c3ccc(-n4cc(C(=O)O)cn4)cc3F)cn2c1` [Compound 25, 1-(4-{8-Cyclopropyl-6-[(1R)-1-methyl-1,2,3,4-tetrahydroisoquinoline-2-carbonyl]imidazo[1,2-a]pyridin-2-yl}-3-fluorophenyl)-1H-pyrazole-4-carboxylic Acid], the EC50 with rgRSV224 virus was 0.369 µM. The CC50 at 3 days in “in vitro” turned out to be 51.3 µM.
For `C[C@@H]1c2ccccc2CCN1C(=O)c1cc(C2CC2)c2nc(-c3ccc(-n4cc(C(N)=O)cn4)cc3F)cn2c1` [Compound 26, 1-(4-{8-Cyclopropyl-6-[(1R)-1-methyl-1,2,3,4-tetrahydroisoquinoline-2-carbonyl]imidazo[1,2-a]pyridin-2-yl}-3-fluorophenyl)-1H-pyrazole-4-carboxamide], in that order: 0.202 µM and 42.7 µM.
